Biological target: T1, IgE-Tb / soluble IgE receptor FcεRIα with a Y131A mutation (Homo sapiens, UniProt P01854, N146Q/N252Q)
T1 construct: fused on or other part: Terbium chelate (LanthaScreen amine-reactive) on IgE-Fc; Alexa Fluor 488 hydrazide on the oxidised glycans of sFcεRIα; Both are labels and no part of the key
Experiment: in vitro FRET assay: binding of IgE-Tb to receptor FcεRIα-Y131A-AF488 and its inhibition by compounds
Settings: 5 nM IgE-Tb, 25 nM FcεRIα-Y131A-AF488, 2 hours at room temperature; read-out: FRET IC50 range

T1 sequence (P01854 104-427 N146Q/N252Q): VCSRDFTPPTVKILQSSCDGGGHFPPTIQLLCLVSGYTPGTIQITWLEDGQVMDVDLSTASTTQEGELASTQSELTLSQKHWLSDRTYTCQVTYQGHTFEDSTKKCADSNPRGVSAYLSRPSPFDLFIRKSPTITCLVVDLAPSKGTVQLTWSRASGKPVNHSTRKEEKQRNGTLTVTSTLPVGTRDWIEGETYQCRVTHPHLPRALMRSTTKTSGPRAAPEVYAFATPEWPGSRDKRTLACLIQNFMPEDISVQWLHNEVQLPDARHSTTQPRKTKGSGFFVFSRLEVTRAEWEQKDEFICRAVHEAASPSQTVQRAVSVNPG
T1 sequence (P12319 26-201 Y156A partner): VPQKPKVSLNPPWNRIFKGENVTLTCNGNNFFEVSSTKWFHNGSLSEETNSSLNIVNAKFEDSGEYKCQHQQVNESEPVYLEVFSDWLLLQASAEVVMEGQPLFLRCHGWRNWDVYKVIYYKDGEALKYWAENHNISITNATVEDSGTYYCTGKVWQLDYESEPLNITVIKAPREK

Row | Compound | IC50
1 | CC(C)(F)CNS(=O)(=O)c1c2c(cc3cnc(C4CC4)cc13)C[C@@H](Nc1cnc(C3(O)COC3)nc1)C2 [Example 30, (7R)-3-cyclopropyl-N-(2-fluoro-2-methylpropyl)-7-[[2-(3-hydroxyoxetan-3-yl)pyrimidin-5-yl]amino]-7,8-dihydro-6H-cyclopenta[g]isoquinoline-5-sulfonamide] | 10 to 50 nM
2 | Cc1nc(-c2ccc(N[C@@H]3Cc4cc5cnc(C6CC6)cc5c(S(=O)(=O)NCC(C)(C)F)c4C3)cn2)no1 [Example 31, (7R)-3-cyclopropyl-N-(2-fluoro-2-methylpropyl)-7-[[6-(5-methyl-1,2,4-oxadiazol-3-yl)pyridin-3-yl]amino]-7,8-dihydro-6H-cyclopenta[g]isoquinoline-5-sulfonamide] | 1 to 10 nM
3 | CC(C)(F)CNS(=O)(=O)c1c2c(cc3cnc(C4CC4)cc13)C[C@@H](Nc1ccc(Cl)nc1)C2 [Example 32, (7R)-7-[(6-chloropyridin-3-yl)amino]-3-cyclopropyl-N-(2-fluoro-2-methylpropyl)-7,8-dihydro-6H-cyclopenta[g]isoquinoline-5-sulfonamide] | 10 to 50 nM
4 | Cc1ccc2c(C(=O)N[C@@H]3Cc4cc5cnc(C6CC6)cc5c(S(=O)(=O)NCC(C)(C)F)c4C3)c[nH]c2c1 [Example 33, N-[(7R)-3-cyclopropyl-5-[(2-fluoro-2-methylpropyl)sulfamoyl]-7,8-dihydro-6H-cyclopenta[g]isoquinolin-7-yl]-6-methyl-1H-indole-3-carboxamide] | 10 to 50 nM
5 | CC(C)(F)CNS(=O)(=O)c1c2c(cc3cnc(C4CC4)cc13)C[C@@H](NC(=O)c1ccc3[nH]nnc3c1)C2 [Example 34, N-[(7R)-3-cyclopropyl-5-[(2-fluoro-2-methylpropyl)sulfamoyl]-7,8-dihydro-6H-cyclopenta[g]isoquinolin-7-yl]-1H-benzotriazole-5-carboxamide] | 10 to 50 nM
6 | CC(C)(F)CNS(=O)(=O)c1c2c(cc3cnc(C4CC4)cc13)CC(Nc1ccc(S(C)(=N)=O)nc1)C2 (centres unmarked) [Example 35, 3-cyclopropyl-N-(2-fluoro-2-methylpropyl)-7-[[6-(methylsulfonimidoyl)pyridin-3-yl]amino]-7,8-dihydro-6H-cyclopenta[g]isoquinoline-5-sulfonamide] | 10 to 50 nM
7 | Cc1noc(-c2ccc(N[C@@H]3Cc4cc5cnc(C6CC6)cc5c(S(=O)(=O)NCC(C)(C)F)c4C3)cn2)n1 [Example 36, (7R)-3-cyclopropyl-N-(2-fluoro-2-methylpropyl)-7-[[6-(3-methyl-1,2,4-oxadiazol-5-yl)pyridin-3-yl]amino]-7,8-dihydro-6H-cyclopenta[g]isoquinoline-5-sulfonamide] | 1 to 10 nM
8 | Cc1nnc(-c2ccc(N[C@@H]3Cc4cc5cnc(C6CC6)cc5c(S(=O)(=O)NCC(C)(C)F)c4C3)cn2)o1 [Example 37, (7R)-3-cyclopropyl-N-(2-fluoro-2-methylpropyl)-7-[[6-(5-methyl-1,3,4-oxadiazol-2-yl)pyridin-3-yl]amino]-7,8-dihydro-6H-cyclopenta[g]isoquinoline-5-sulfonamide] | 1 to 10 nM
9 | CC(C)(F)CNS(=O)(=O)c1c2c(cc3cnc(C4CC4)cc13)C[C@@H](Nc1ccc(C3(O)COC3)nc1)C2 [Example 38, (7R)-3-cyclopropyl-N-(2-fluoro-2-methylpropyl)-7-[[6-(3-hydroxyoxetan-3-yl)pyridin-3-yl]amino]-7,8-dihydro-6H-cyclopenta[g]isoquinoline-5-sulfonamide] | 10 to 50 nM
10 | CC(C)(F)CNS(=O)(=O)c1c2c(cc3cnc(C4CC4)cc13)C[C@@H](Nc1ccc(C(C)(C)O)nc1)C2 [Example 39, (7R)-3-cyclopropyl-N-(2-fluoro-2-methylpropyl)-7-[[6-(2-hydroxypropan-2-yl)pyridin-3-yl]amino]-7,8-dihydro-6H-cyclopenta[g]isoquinoline-5-sulfonamide] | 10 to 50 nM
11 | CC(C)(F)CNS(=O)(=O)c1c2c(cc3cnc(C4CC4)cc13)CC(NC1=CS(=O)(=O)CC1)C2 (centres unmarked) [Example 40, 3-cyclopropyl-7-[(1,1-dioxo-2,3-dihydrothiophen-4-yl)amino]-N-(2-fluoro-2-methylpropyl)-7,8-dihydro-6H-cyclopenta[g]isoquinoline-5-sulfonamide] | 100 to 2000 nM
12 | Cc1ccc(S(=O)(=O)c2cncc(N[C@@H]3Cc4cc5cnc(C6CC6)cc5c(S(=O)(=O)NCC(C)(C)F)c4C3)c2)cn1 [Example 43, (7R)-3-cyclopropyl-N-(2-fluoro-2-methylpropyl)-7-[[5-(6-methylpyridin-3-yl)sulfonylpyridin-3-yl]amino]-7,8-dihydro-6H-cyclopenta[g]isoquinoline-5-sulfonamide] | 10 to 50 nM
13 | CCNC(=O)NC1Cc2cc3cnc(C4CC4)cc3c(S(=O)(=O)NCC(C)C)c2C1 (centres unmarked) [Example 44, 1-[3-cyclopropyl-5-(2-methylpropylsulfamoyl)-7,8-dihydro-6H-cyclopenta[g]isoquinolin-7-yl]-3-ethylurea] | 10 to 50 nM
14 | CCNC(=O)NC1CCc2c1cc1cnc(C3CC3)cc1c2S(=O)(=O)NCC(C)C (centres unmarked) [Example 45, 1-[3-cyclopropyl-5-(2-methylpropylsulfamoyl)-7,8-dihydro-6H-cyclopenta[g]isoquinolin-8-yl]-3-ethylurea] | 100 to 2000 nM
15 | CCNC(=O)NC1CCc2cc3cnc(C4CC4)cc3c(S(=O)(=O)NCC(C)C)c21 (centres unmarked) [Example 46, 1-[3-cyclopropyl-5-(2-methylpropylsulfamoyl)-7,8-dihydro-6H-cyclopenta[g]isoquinolin-6-yl]-3-ethylurea] | 100 to 2000 nM
16 | CC(C)CNS(=O)(=O)c1c2c(cc3cnc(C4CC4)cc13)C(O)CC2 (centres unmarked) [Example 47, 3-cyclopropyl-8-hydroxy-N-(2-methylpropyl)-7,8-dihydro-6H-cyclopenta[g]isoquinoline-5-sulfonamide] | 100 to 2000 nM
17 | CC(C)CNS(=O)(=O)c1c2c(cc3cnc(C4CC4)cc13)CCC2O (centres unmarked) [Example 48, 3-cyclopropyl-6-hydroxy-N-(2-methylpropyl)-7,8-dihydro-6H-cyclopenta[g]isoquinoline-5-sulfonamide] | 100 to 2000 nM
18 | CC(C)(F)CNS(=O)(=O)c1c2c(cc3cnc(C4CC4)cc13)CC1(COC(=O)N1)C2 (centres unmarked) [Example 49, 3′-cyclopropyl-N-(2-fluoro-2-methylpropyl)-2-oxospiro[1,3-oxazolidine-4,7′-6,8-dihydrocyclopenta[g]isoquinoline]-5′-sulfonamide] | 100 to 2000 nM
19 | CC(C)(F)CNS(=O)(=O)c1c2c(cc3cnc(C4CC4)cc13)CC(CO)(Nc1nncn1-c1cccnc1)C2 (centres unmarked) [Example 50, 3-cyclopropyl-N-(2-fluoro-2-methylpropyl)-7-(hydroxymethyl)-7-[(4-pyridin-3-yl-1,2,4-triazol-3-yl)amino]-6,8-dihydrocyclopenta[g]isoquinoline-5-sulfonamide] | 100 to 2000 nM
20 | CC(C)(F)CNS(=O)(=O)c1c2c(cc3cnc(C4CC4)cc13)CN(c1cccnc1N)C2 [Example 51, 2-(2-aminopyridin-3-yl)-7-cyclopropyl-N-(2-fluoro-2-methylpropyl)-1,3-dihydropyrrolo[3,4-g]isoquinoline-9-sulfonamide] | 100 to 2000 nM
21 | CCNc1c(NC2Cc3cc4cnc(C5CC5)cc4c(S(=O)(=O)NCC(C)C)c3C2)c(=O)c1=O (centres unmarked) [Example 53, 3-cyclopropyl-7-[[2-(ethylamino)-3,4-dioxocyclobuten-1-yl]amino]-N-(2-methylpropyl)-7,8-dihydro-6H-cyclopenta[g]isoquinoline-5-sulfonamide] | 10 to 50 nM
22 | CC(C)CNS(=O)(=O)c1c2c(cc3cnc(C4CC4)cc13)CC(C(=O)NCC(C)(C)C)C2 (centres unmarked) [Example 54, 3-cyclopropyl-N-(2,2-dimethylpropyl)-5-(2-methylpropylsulfamoyl)-7,8-dihydro-6H-cyclopenta[g]isoquinoline-7-carboxamide] | 10 to 50 nM
23 | CC(C)CNS(=O)(=O)c1c2c(cc3cnc(C4CC4)cc13)CC(NS(C)(=O)=O)C2 (centres unmarked) [Example 55, 3-cyclopropyl-7-(methanesulfonamido)-N-(2-methylpropyl)-7,8-dihydro-6H-cyclopenta[g]isoquinoline-5-sulfonamide] | 50 to 100 nM
24 | CC(C)(F)CNS(=O)(=O)c1c2c(cc3cnc(C4CC4)cc13)CC(c1nc3ccncc3[nH]1)C2 (centres unmarked) [Example 56, 3-cyclopropyl-N-(2-fluoro-2-methylpropyl)-7-(3H-imidazo[4,5-c]pyridin-2-yl)-7,8-dihydro-6H-cyclopenta[g]isoquinoline-5-sulfonamide] | 50 to 100 nM
25 | Cc1cc(Nc2nncn2C2Cc3cc4cnc(C5CC5)cc4c(S(=O)(=O)NCC(C)(C)F)c3C2)n(C)n1 (centres unmarked) [Example 57, 3-cyclopropyl-7-[3-[(2,5-dimethylpyrazol-3-yl)amino]-1,2,4-triazol-4-yl]-N-(2-fluoro-2-methylpropyl)-7,8-dihydro-6H-cyclopenta[g]isoquinoline-5-sulfonamide] | 100 to 2000 nM
26 | CC(C)(F)CNS(=O)(=O)c1c2c(cc3cnc(C4CC4)cc13)CC(n1ccnc1NCC1CC1)C2 (centres unmarked) [Example 58, 3-cyclopropyl-7-[2-(cyclopropylmethylamino)imidazol-1-yl]-N-(2-fluoro-2-methylpropyl)-7,8-dihydro-6H-cyclopenta[g]isoquinoline-5-sulfonamide] | 100 to 2000 nM
27 | CCNC(=O)CN1Cc2cc3cnc(C4CC4)cc3c(S(=O)(=O)NCC(C)C)c2C1 [Example 59, 2-[7-cyclopropyl-9-(2-methylpropylsulfamoyl)-1,3-dihydropyrrolo[3,4-g]isoquinolin-2-yl]-N-ethylacetamide] | 100 to 2000 nM
28 | CC(C)CNS(=O)(=O)c1c2c(cc3cnc(C4CC4)cc13)CNC2 [Example 60, 7-cyclopropyl-N-(2-methylpropyl)-2,3-dihydro-1H-pyrrolo[3,4-g]isoquinoline-9-sulfonamide] | 100 to 2000 nM
29 | CC(C)(F)CNS(=O)(=O)c1c2c(cc3cnc(C4CC4)cc13)C[C@@H](Nc1ccc(S(N)(=O)=O)nc1)C2 [Example 61, (7R)-3-cyclopropyl-N-(2-fluoro-2-methylpropyl)-7-[(6-sulfamoylpyridin-3-yl)amino]-7,8-dihydro-6H-cyclopenta[g]isoquinoline-5-sulfonamide] | 10 to 50 nM

— patent US12577228B2, “Dihydrocyclopenta-isoquinoline-sulfonamide derivatives compounds” (UCB Biopharma SRL, priority 2019, dated 2026)
